Literature values in US8740762B2, “Specific inhibition of cPLA2 enhances the efficacy of radiotherapy” (Vanderbilt University, priority 2007, dated 2014).

What was measured:
pro-survival kinases = conditions: 20 μM

lysophosphatidylcholine [LPC]
activation of pro-survival kinases (pro-survival kinases): activated the same pro-survival kinases
cell death (HUVEC; concentrations higher than 25 μM): promote cell death
proliferation of HUVEC (HUVEC; up to 25 μM): increase proliferation
